# Source: US8138158B2, “Compositions and methods for therapy for diseases characterized by defective chloride transport” (Children's Hospital & Research Center at Oakland, priority 1997, dated 2012)
# Legend:
# [1] = system: CF15 monolayers homozygous for ΔF508 CFTR; assay: Short-circuit current across CF15 monolayers homozygous for ΔF508 CFTR; format: cell-based, human; conditions: D-isoascorbate 300 μm
# Description: (§1) Human airway cell culture. The human submucosal serous gland-like cell line Calu-3, the CF nasal epithelial cell line homozygous for ΔF508 CFTR (CF15) and human tracheal primary cultures (hTE) were cultured as described (Jefferson, D. M., Valentich, J. D., Marini, F. C., Grubman, S. A., Iannuzzi, M. C., Dorkin, H. L., Li, M., Klinger, K. W. & Welsh, M. J. (1990) Am. J. Physiol. 259, L496-L505. Sachs, L. A., Finkbeiner, W. E. & Widdicombe, J. H. (2003) In Vitro Cell Dev. Biol. Anim. 39, 56-62.). Wildtype CFTR-corrected CF15 cells were generated via adenovirus-mediated gene transfer. Growth media were nominally free of ascorbic acid (<10 μm, University Pathology Inc., Salt Lake City, Utah). For transepithelial measurements cells were grown on permeable filter inserts and used after 3 to 10 days.
# (§2) Short-circuit current measurement. Calu-3 or CF15 cells were grown as monolayers, mounted in Ussing chambers and short-circuit current (ISC) was recorded as described (Illek, B. & Fischer, H. (1998) Am. J. Physiol. 275, L902-L910). At 20-50 second intervals, transepithelial voltage was clamped from zero to 2 mV and the transepithelial resistance (Rte) was calculated. A serosa-to-mucosa-directed Cl gradient was applied. Serosal Ussing chamber solution contained (in mM): 120 NaCl, 20 NaHCO3, 5 KHCO3, 1.2 NaH2PO4, 5.6 glucose, 2.5 CaCl2, 1.2 MgCl2. In mucosal Ussing chamber solutions, all Cl salts were exchanged for gluconate salts.
# The CF15 cell line was used to determine whether ascorbate-stimulated Cl currents were solely mediated by the CFTR Cl conductance. The CF15 cell line is characterized by the absence of functional CFTR in the apical plasma membrane but the presence of other non-CFTR Cl conductances (Jefferson, D. M., Valentich, J. D., Marini, F. C., Grubman, S. A., Iannuzzi, M. C., Dorkin, H. L., Li, M., Klinger, K. W. & Welsh, M. J. (1990) Am. J. Physiol. 259, L496-L505). A concentration of L-ascorbic acid that lay within the upper plateau of the dose response curve (500 μm) was applied and ascorbate-stimulated Cl currents in CF15 vs. wildtype CFTR-corrected CF15 monolayers was compared (FIG. 23A). […] The defective response to L-ascorbic acid was reversed in wildtype CFTR-corrected CF15 epithelia such that ISC responded promptly to L-ascorbic acid (ΔISC=7.5±0.5 μA/cm^2, n=6). The ascorbate-stimulated current was further activated by the cAMP agonist forskolin and total stimulated ISC averaged 12.1±1.1 μA/cm^2 (FIG. 4B). The ascorbate-stimulated Cl current reached 60±15% of the forskolin-stimulated current in CFTR-corrected CF15 monolayers, which was close to the corresponding findings in Calu-3 monolayers (68%, see FIG. 21A). […]
# (§3) In this example, chloride currents stimulated by L-ascorbate or D-ascorbate were measured in CF15 versus. wildtype CFTR-corrected CF15 monolayers. A concentration of L-ascorbate (1 mM) or D-isoascorbate (300 μm) that lay within the upper plateau of the dose-response curve was applied to cells and the resulting chloride currents stimulated in CF15 versus wildtype CFTR-corrected CF15 monolayers were measured (FIG. 25 A-H). […]
# The functional activation of ΔF508 CFTR was determined after correction of the underlying trafficking defect of ΔF508 CFTR using S-Nitrosoglutathione (Zaman, et al., Biochem Biophys Res Commun 284: 65-70, 2001; Snyder, et al., American Journal of Respiratory and Critical Care Medicine 165: 922-6, 2002; Andersson, et al. Biochemical and Biophysical Research Communication 297(3): 552-557, 2002.). […]
# ΔF508 CFTR = molecular target: T1, ΔF508 CFTR (Mus musculus, UniProt P26361, DEL508-508); assay: Rectal potential difference (RPD) in mice homozygous for ΔF508 CFTR; format: in vivo
# T1 construct: from tissue; host or cells: rectal mucosa of living ΔF508 CF mice (C57Bl6/J), TMAO-treated or water-injected
# T1 sequence (P26361 with tags, fused parts or gaps DEL508-508): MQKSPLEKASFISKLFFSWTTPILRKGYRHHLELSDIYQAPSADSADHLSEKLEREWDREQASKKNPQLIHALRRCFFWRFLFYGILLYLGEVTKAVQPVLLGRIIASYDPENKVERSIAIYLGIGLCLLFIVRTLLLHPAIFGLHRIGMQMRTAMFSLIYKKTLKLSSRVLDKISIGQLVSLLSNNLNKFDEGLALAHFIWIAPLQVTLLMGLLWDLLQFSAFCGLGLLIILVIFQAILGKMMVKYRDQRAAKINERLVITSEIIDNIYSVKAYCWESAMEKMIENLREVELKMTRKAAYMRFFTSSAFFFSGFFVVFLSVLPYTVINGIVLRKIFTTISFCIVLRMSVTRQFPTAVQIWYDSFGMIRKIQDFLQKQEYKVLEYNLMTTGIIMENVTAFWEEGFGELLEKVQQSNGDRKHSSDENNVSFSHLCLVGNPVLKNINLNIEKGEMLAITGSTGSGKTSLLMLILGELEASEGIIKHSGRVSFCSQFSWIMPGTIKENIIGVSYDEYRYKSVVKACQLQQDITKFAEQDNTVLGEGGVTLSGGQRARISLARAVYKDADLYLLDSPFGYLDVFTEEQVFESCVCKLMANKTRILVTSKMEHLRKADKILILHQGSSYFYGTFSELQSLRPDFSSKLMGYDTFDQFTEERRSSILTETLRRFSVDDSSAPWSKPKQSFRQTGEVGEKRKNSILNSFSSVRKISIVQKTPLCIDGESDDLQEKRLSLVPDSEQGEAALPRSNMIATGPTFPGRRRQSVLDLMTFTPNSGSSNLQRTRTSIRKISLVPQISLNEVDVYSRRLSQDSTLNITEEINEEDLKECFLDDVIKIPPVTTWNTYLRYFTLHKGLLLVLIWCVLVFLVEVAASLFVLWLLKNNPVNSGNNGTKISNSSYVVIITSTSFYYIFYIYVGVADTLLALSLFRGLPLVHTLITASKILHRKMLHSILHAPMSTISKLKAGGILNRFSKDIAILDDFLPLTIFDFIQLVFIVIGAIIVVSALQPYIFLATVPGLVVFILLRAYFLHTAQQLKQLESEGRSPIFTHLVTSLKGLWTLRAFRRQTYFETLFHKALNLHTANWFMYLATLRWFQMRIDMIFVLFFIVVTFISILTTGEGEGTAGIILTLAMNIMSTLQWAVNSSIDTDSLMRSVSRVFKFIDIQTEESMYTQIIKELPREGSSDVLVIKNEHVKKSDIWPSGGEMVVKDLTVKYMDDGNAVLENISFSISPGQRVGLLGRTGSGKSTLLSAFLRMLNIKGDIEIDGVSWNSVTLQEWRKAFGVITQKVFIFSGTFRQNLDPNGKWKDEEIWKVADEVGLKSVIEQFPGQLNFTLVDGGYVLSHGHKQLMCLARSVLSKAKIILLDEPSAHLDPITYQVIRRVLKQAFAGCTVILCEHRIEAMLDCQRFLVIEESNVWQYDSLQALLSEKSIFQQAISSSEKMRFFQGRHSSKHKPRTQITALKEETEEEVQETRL
# Source text: CF mice and rectal potential difference (RPD) measurements. Gene-targeted mice homozygous for the ΔF508 mutation (C57Bl6/J) received Golytely® (Braintree Laboratories, Inc.), a diarrhetic supplement, in the drinking water to increase their lifespan (Clarke, L. L., Gawenis, L. R., Franklin, C. L. & Harline, M. C. (1996) Lab. Anim. Sci. 46, 612-8). To correct the maturation defect of ΔF508 CFTR we used the chemical chaperone trimethylamine oxide (TMAO) (Brown, C. R., Hong-Brown, L. Q., Biwersi, J., Verkman, A. S. & Welch, W. J. (1996) Cell Stress Chaperones 1, 117-25). CF mice were injected with 4 mg/g TMAO from a 4 M stock solution every 8 hours for 24 hours, which is a regimen to partially correct the ΔF508 defect in CF mice (Fischer, H., Barbry, P., Illek, B., Sartori, C., Fukuda, N. & Matthay, M. A. (2001) Am. J. Physiol. 281, L52-L57). Controls were water-injected. The RPD assay was performed on mice that were anesthetized with 0.1 mg/g body weight ketamine and 0.01 mg/g body weight azepromazine. RPD was sensed with a 1 M NaCl agar bridge inserted ˜1 cm into the rectum vs. a subcutaneous needle filled with 1 M NaCl. Measurements were performed in Cl free solution containing 100 μm amiloride and 5 mM Ba(OH)2 to isolate the Cl-selective RPD.
# In this Example, it was determined whether L-ascorbic acid affected the functional activation of ΔF508 CFTR in a CF-affected organism in vivo. Using gene-targeted mice homozygous for the ΔF508 mutation it was shown previously that the osmolyte trimethylamine oxide (TMAO) effectively supported ΔF508 CFTR trafficking in vivo (Fischer, H., Barbry, P., Illek, B., Sartori, C., Fukuda, N. & Matthay, M. A. (2001) Am. J. Physiol. 281, L52-L57). Accordingly, the effect of L-ascorbic acid was tested in homozygous ΔF508 CF mice treated with TMAO by using the RPD assay as a functional end point measure for mutant ΔF508-CFTR function. FIG. 24A illustrates that TMAO-treated CF mice manifested a detectable response to a maximal dose of L-ascorbic acid (1 mM) or its epimer D-isoascorbic acid (300 μM) and RPD hyperpolarized on average by −3.2±0.8 mV (n=4) and −3.6±1.8 mV (n=3), respectively (FIG. 24B).
# [2] = system: wildtype CFTR-corrected CF15 monolayers; assay: Short-circuit current across wildtype CFTR-corrected CF15 monolayers; format: cell-based, human; conditions: D-isoascorbate 300 μm; amiloride; n=2
# Description: as §1, §2
# The CF15 cell line was used to determine whether ascorbate-stimulated Cl currents were solely mediated by the CFTR Cl conductance. The CF15 cell line is characterized by the absence of functional CFTR in the apical plasma membrane but the presence of other non-CFTR Cl conductances (Jefferson, D. M., Valentich, J. D., Marini, F. C., Grubman, S. A., Iannuzzi, M. C., Dorkin, H. L., Li, M., Klinger, K. W. & Welsh, M. J. (1990) Am. J. Physiol. 259, L496-L505). A concentration of L-ascorbic acid that lay within the upper plateau of the dose response curve (500 μm) was applied and ascorbate-stimulated Cl currents in CF15 vs. wildtype CFTR-corrected CF15 monolayers was compared (FIG. 23A). […] The defective response to L-ascorbic acid was reversed in wildtype CFTR-corrected CF15 epithelia such that ISC responded promptly to L-ascorbic acid (ΔISC=7.5±0.5 μA/cm^2, n=6). The ascorbate-stimulated current was further activated by the cAMP agonist forskolin and total stimulated ISC averaged 12.1±1.1 μA/cm^2 (FIG. 4B). The ascorbate-stimulated Cl current reached 60±15% of the forskolin-stimulated current in CFTR-corrected CF15 monolayers, which was close to the corresponding findings in Calu-3 monolayers (68%, see FIG. 21A). The absence of ascorbate-stimulated Cl currents in CF15 monolayers supports the notion that non-CFTR Cl conductances were not activated by L-ascorbic acid.
# as §3, with “A-H). All experiments were performed in the presence of the sodium channel blocker amiloride.” for “A-H).”
# Calu-3 monolayers = assay: Transepithelial chloride currents in forskolin-prestimulated Calu-3 monolayers; format: cell-based, human; conditions: prestimulated with 10 μM forskolin; compound at 100 μM
# Description: FIGS. 13A-13C illustrate the effect of additional representative flavonoids and isoflavonoids on chloride current in epithelial cells. FIG. 13A is a graph showing the stimulation of transepithelial chloride currents by reservatrol (100 μM), flavanone (100 μM), flavone (200 μM), apigenin (20 μM), apigenin 7-O-neohesperidoside (30 μM), kaempferol (20 μM), fisetin (100 μM), quercetin (30 μM), rutin (30 μM), genistein (30 μM), daidzein (50 μM), biochanin A (100 μM) and prunetin (100 μM) in Calu-3 monolayers. Experiments were performed in the presence of 10 μM forskolin. Stimulated currents are plotted relative to forskolin stimulated increase (forskolin stimulated currents are 100%). FIG. 13B is a recording showing the effect of 7,4′-dihydroxyflavone on chloride current in unstimulated tissue. […] Increasing concentrations of 7,4′-dihydroxyflavone (as indicated in μM) were added to mucosal side and dose-dependently stimulated chloride currents. Currents were recorded with a serosal-to-mucosal chloride gradient at 0 mV and pulses were obtained at 2 mV. FIG. 13C is a recording illustrating the effect of trimethoxy-apigenin. […] Increasing concentrations of trimethoxy-apigenin (as indicated in μM) were added to mucosal side and dose-dependently stimulated chloride currents. Experiment was performed on unstimulated tissue. Currents were recorded with a serosal-to-mucosal chloride gradient at 0 mV and pulses were obtained at 2 mV.
# Airway epithelial cells were prestimulated with 10 μM forskolin. The percent increase in chloride current was then determined following treatment with a series of polyphenolic compounds. FIG. 13A summarizes the stimulatory effect of these compounds.
# Calu-3 cell monolayer = assay: Short-circuit current across α-toxin-permeabilized Calu-3 cell monolayer in Ussing chamber; format: cell-based, human; conditions: tissue first stimulated with forskolin 10 μM; biochanin A 100 and 300 μM
# Source text: Within one in vitro assay, the level of chloride transport may be evaluated using mammalian pulmonary cell lines, such as Calu-3 cells, or primary human, rat, mouse and bovine tracheal and alveolar cell cultures, as well as intestinal epithelial cell lines, such as T84, HT-29, Caco-2 and cell lines of other epithelial origin such as MDCK and FRT. In general, such assays employ cell monolayers, which may be prepared by standard cell culture techniques. Within such systems, CFTR-mediated chloride current may be monitored in an Ussing chamber using intact epithelia. Anion efflux assays may be used to detect CFTR-mediated transport (e.g., iodide efflux, see for example RNA. 2003 October; 9(10): 1290-7). Additionally, chloride transport (or generally airway surface liquid composition), can be evaluated using any number of indicators such as described in J Gen Physiol. 2003 November; 122(5): 511-9. Alternatively, chloride transport may be evaluated using epithelial tissue in which the basolateral membrane is permeabilized with anion-selective ionophores such as nystatin, amphotericin B or Staphylococcus aureus α-toxin, and in which a chloride gradient is imposed across the apical membrane (see Illek et al., Am. J. Physiol. 270:C265-75, 1996). In either system, chloride transport is evaluated in the presence and absence of a test compound (i.e., a flavone or isoflavone, or ascorbate or derivative thereof), and those compounds that stimulate chloride transport as described above may be used within the methods provided herein.
# A Calu-3 cell monolayer was prepared in an Ussing chamber as described by Illek et al., Am. J. Physiol. 270:C265-275, 1996. […]
# To evaluate the effect of biochanin A, a Calu-3 cell monolayer was prepared and permeabilized as described above. […] The effect of biochanin A (Bio, 100 and 300 μM) on short-circuit current (ISC) across the Calu-3 monolayer was evaluated in an Ussing chamber.
compound,measurement,setting,value
O=C1O[C@H]([C@H](O)CO)C(O)=C1O [D-isoascorbic acid],transepithelial chloride currents increased on average by,"[1]; CF15 treated with 1 mM SNOG for 5-24 hours, n=8",3.1±0.5
same,ΔIsc,"[1]; untreated CF epithelia, amiloride, n=7",0.7±1.0 μA/cm^2
same,RPD hyperpolarized on average by,"ΔF508 CFTR; CF mice treated with 4 mg/g TMAO for 24 hours, D-isoascorbic acid 300 μM, n=3",−3.6±1.8 mV
same,ΔRPD,"ΔF508 CFTR; water-injected control CF mice, L-ascorbic acid or D-isoascorbic acid, n=9",−1.1±0.4 mV
same,ΔIsc,[2],6.6±1.7 μA/cm^2
"C[N+](C)(C)[O-] [TMAO, trimethylamine oxide, reference compound]",increase of ascorbate- and isoascorbate-stimulated RPD compared to untreated CF mice,ΔF508 CFTR; TMAO 4 mg/g every 8 hours for 24 hours,approximately 3 fold
"COc1ccc(-c2coc3cc(O)cc(O)c3c2=O)cc1 [biochanin A, 4′-methoxy-5,7-dihydroxyisoflavone]",chloride currents further stimulated to (forskolin stimulated currents are 100%),Calu-3 monolayers,139%
same,"short-circuit current (ISC), chloride secretion",Calu-3 cell monolayer,further stimulated chloride secretion
